The values that follow are results of earlier work, collected in US20060105961A1 (Pharmacia Corporation, priority 2002, published 2006).

The subject of this series is tumor. Conditions: mice after radiotherapy.

For `COc1ccc2c(c1)c(CC(=O)O)c(C)n2C(=O)c1ccc(Cl)cc1` [indomethacin], the tumor cure rate result is “increases the tumor cure rate” and the tumor growth delay result is “prolongs tumor growth delay”.
